Where two headings read alike, the source gives them in different places.
Columns and labels:
[1] = patients; cited from earlier work
[2] = tested on: non-small-cell lung cancer (NSCLC) with pleural spread; conditions: 22 patients, photosensitizer 24 hours before surgery, 603 nm light; cited from earlier work
human endothelial cells [3] = assay: Laser treatment of human endothelial cells with SWNT-annexin V complex, SDS method (Alamar Blue); assay type: cell-based
Protocol: SWNTs with annexin V conjugated using the Fmoc-NH-PEG-NHS linker added via the SDS method were used in a laser test with endothelial cells. […] The endothelial cells were transferred to 24 well plates (5×10^4 cells per well) and grown until 100% confluence was reached. A separate plate was used for each different treatment. The media was warmed up in the incubator at 37° C., and the media was removed from the wells. […] For each plate, the experiment was done with two or three wells.
300 μl of F12K media was added with 2 mM Ca^2+ to the wells, and the laser treatment was performed on each well using a beam with a diameter of 1.8 cm, power level of 3.9 W, and beam time of 130 s (energy density=199 J/cm^2).
Then, SWNT-annexing V was added to the wells as described above.

[4] = tested on: human endothelial cells with phosphatidylserine exposed by H2O2; assay: Binding of SWNT-annexin V (biotinylated) to human endothelial cells in vitro (streptavidin-HRP/OPD, A450)
Protocol: Purified recombinant annexin V was labeled with biotin for detection (SureLINK chromophoric biotin labeling kit; KPL, Gaithersburg, Md.) with a 40-molar excess of biotin. Biotin labeling of annexin V has been found previously not to impair the PS-binding of annexin V. The following procedure was used to measure the binding of the SWNT-annexin V (biotinylated) to human endothelial cells in vitro.
Human endothelial cells (American Type Culture Collection, Manassas, Va.) were grown as monolayers in T-75 flasks. […] The cells were fixed by adding 100 μl of phosphate buffered saline (PBS) buffer containing 0.25% glutaraldehyde and Ca^2+ (2 mM). Excess aldehyde groups were quenched by incubating with 50 mM of NH4Cl (100 μl) diluted in PBS buffer containing Ca^2+ (2 mM) for 5 minutes. The SWNT-annexin V conjugate was diluted in 0.5% BSA diluted in PBS buffer and Ca^2+ (2 mM) with an initial concentration of […]. This concentrated fusion protein solution was serially diluted 2-fold until a final concentration of 6.7 μM. SWNT-CMC-annexin V (300 μl) was added to wells in the increasing concentration of SWNT-CMC-annexin V. For each concentration of SWNT-CMC-annexin V, the experiment was done in duplicate and incubated for 2 hours. Plates were washed with 0.5% BSA diluted in PBS buffer and Ca^2+ (2 mM) (300 μl). 300 μl of streptadivin-HRP (horseradish peroxidase) (2 μg/ml) was added and incubated for 1 hour at room temperature. The plate was then washed with PBS (300 μl), and the chromogenic substrate O-phenylenediamine (OPD, 300 μl) was added and incubated for 30 minutes. 100 μl of the supernatant was then transferred to 96-well plates, and absorbance was measured at 450 nm (Biotek KC4 microtiter plate reader) using a blank that omits the addition of SWNT-annexin V described above.
The data obtained above for the binding of SWNT-CMC-annexin V to human endothelial cells in vitro was used in the determination of the dissociation constant (Kd). […]

human endothelial cells [5] = tested on: human endothelial cells
Protocol: The effects of irradiation of SWNTs bound to endothelial cells were tested in vitro. […] The following procedure was used to treat human endothelial cells in vitro with SWNT-CMC-annexin V bound.
Cells were grown using F12K media containing 10% FBS until they reach 85% confluence in T-75 flasks, and the cells were then counted using a hemocytometer. Cancer cells (5×10^4) were transferred to 24 well plates (6 plates, with 3 wells per plate containing cells) and grown until 85% confluence was reached. Two extensive dialyses were performed (with a total dilution factor of 1,000,000×) in order to remove the sodium azide from the SWNT-CMC-biotinylated annexin V. The first dialysis for 3 hours (1000×) was performed using modification buffer (100 mM sodium phosphate, 150 mM NaCl, pH 7.2-7.4). The buffer was changed and the dialysis continued for 4 more hours. 1 ml of the suspension of SWNT-CMC-biotinylated annexin V was used. PS was exposed on the surface of cells by the addition of hydrogen peroxide (1 mM), and the cells were treated with 300 μl binding buffer containing the F12K media containing 1 mM of H2O2 for 1 hour at 37° C. The plates were washed 4× with F12K media (containing 10% FBS) (300 μl), and SWNT-CMC-biotinylated-annexin V (300 μl) was added to wells at a concentration of 20 nM. In order to obtain this concentration, the protein was diluted using F12K media (containing 10% FBS plus 2 mM Ca^2+). For each plate, the experiment was done in triplets. The plates were incubated for 2 hours in the incubator and then washed 4× with F12K media (containing 10% FBS plus 2 mM Ca^2+) (300 μl). […] Cell viability was evaluated one hour later by adding Alamar Blue in an amount equal to 10% of culture media (30 μl of Alamar Blue+300 μl of media) volume to the wells. […] Fluorescence was then measured at 590 nm (using excitation at 530 nm). […] The cells that were attached were treated with trypsin, and the cells were combined in the 96-well plates and counted in a hemocytometer. […]

4T1 mouse mammary tumors = assay: In vivo laser treatment of implanted 4T1 mammary tumors in mice with SWNT-annexin V complex; design: species or system BALB/cJ mice
Protocol: In another embodiment, female BALB/cJ mice, age 6 weeks (received from Jackson Laboratory (Bar Harbor, Me.) were treated. Animal experimentation was not started until the animals were 9 weeks old. The animals were kept in a dedicated room in the animal facility located in the Zoology building of the University of Oklahoma. All of the protocols used involving animals were previously submitted and approved by the Institutional Animal Care and Use Committee (IACUC). All of the animals were placed in appropriate cages with food and water in an adequate environment. Each cage hosted five animals. The anesthetics used were ketamine (100 mg/ml) and xylazine (20 mg/ml). In order to prepare the anesthetic solution, 1 ml of ketamine (100 mg/ml) was mixed with 0.5 ml of xylazine (20 mg/ml) and 8.5 ml of sterile saline solution (0.9% NaCl). The dosage used for each animal was equal to 0.1 ml of the stock solution per 10 grams of body weight. Prior to anesthetizing the animals, each of them was weighted using a scale.
In order to evaluate the ability to eradicate the tumors using this therapy in vivo, it was necessary to implant a suitable cancer cell line in the animals. The 4T1 cell line was chosen for this study, since these cells have the ability to replicate at a fast rate and also develop visible tumors in BALB/c mice in a matter of less than one week after implantation. […] After having the eight T-75 flasks growing for 2 days, there are plenty of cells to inject the animals, for each test. The cells are then lifted from the flasks using ACCUTASE® solution (Innovative Cell Technologies, San Diego, Calif.), using the same procedure as for human endothelial cells. […] Knowing that it is necessary to inject 5×10^5 cells/animal (volume=100 μl), the total number of cells was determined. The cell concentration in the sample was evaluated using the standard cell counting procedure. […]
After irradiation, the tumor volumes were monitored every two days. […] The length and width of the tumors was measured using a digital caliper. The tumor volumes were determined by applying the following formula: […]

human endothelial cells [6] = assay: Laser irradiation of human endothelial cells with SWNT-Fmoc-NH-PEG-NHS-annexin V bound (Alamar Blue); assay type: cell-based; conditions: 20 nM protein
Protocol: The procedure described above was applied using the human annexin V protein but any Annexin described herein could be used. […] The media was warmed up in the incubator at 37° C. and then removed from the wells. […] For each plate, the experiment was performed in triplets.
The samples (300 μl/well) were then transferred to a 96-microtiter plate, and fluorescence was measured at 590 nm (using excitation at 530 nm).

[7] = human endothelial cells, FIG. 1

Compound: porfimer sodium [porfirmer sodium]
- side effect [1]: prolonged skin photosensitivity
- median survival [2]: 21 months

Compound: SWNT-annexin V: SWNTs with annexin V conjugated using the Fmoc-NH-PEG-NHS linker added via the SDS method
- cell viability (human endothelial cells [3]; 0.89 mg/L SWNT, 299 J/cm^2, hydrogen peroxide, versus 199 J/cm^2): again lower
- reduction of cell viability compared with untreated cells (human endothelial cells [3]; 0.89 mg/L SWNTs, laser energy 199 J/cm^2, hydrogen peroxide, 100% confluent cells): 60%
- effect on cell viability (human endothelial cells [3]; laser at 199 J/cm^2, 0.06-0.89 mg/L SWNT, no H2O2, significant (p<0.05) at 0.89 mg/L): concentration-dependent effect on cell viability
- effect on the cells (Alamar Blue) (human endothelial cells [3]; without laser (plate 2, 0.06 mg/L SWNT)): no effect on the cells

Compound: SWNT-CMC-annexin V: Recombinant annexin V (biotinylated) conjugated via EDC/NHS to carboxymethylcellulose (30 kDa) adsorbed to single-walled carbon nanotubes
- Kd ([4]; binding to human endothelial cells in vitro, PS exposed with 1 mM H2O2, fit with Prism 5, read-out: dissociation constant (Kd)): 2.9 nM
- binding to the cells [4, 7]: binding to the cells increased as the annexin V-SWNT complex concentration increased
- concentration above which transition from negligible binding to measurable binding occurred [4, 7]: > 1000 pM
- difference in RFU between cells with nanotubes and cells without nanotubes (human endothelial cells [5]): no significant difference
- cell number at 4 W/cm^2 relative to 0 W/cm^2 (human endothelial cells [5]; 20 nM complex bound, 980 nm, 20 J/cm^2, hemocytometer): 50%
- difference in RFU between cells with nanotubes and cells without nanotubes (human endothelial cells [5]; power level of 2 W/cm^2, 980 nm, 20 J/cm^2): no significant difference

Compound: O=P1(N(CCCl)CCCl)NCCCO1 (centres unmarked) [CY, cyclophosphamide]
- effect of addition of CY on tumor volume reduction (4T1 mouse mammary tumors; CY 50 mg/kg i.p. added to SWNTs+Laser): did not translate into a significant difference
- effect of CY on metastatic nodules compared to laser+SWNT treatment alone (4T1 mouse mammary tumors; lungs): did not lead to fewer metastatic nodules
- effect of addition of CY on survival (4T1 mouse mammary tumors; treatment group that received CY compared to the one that did not): increased survival

Compound: SWNT-Fmoc-NH-PEG-NHS-annexin V: Human annexin V attached via Fmoc-NH-PEG-NHS linker adsorbed to SWNTs dispersed with sodium cholate
- effect on the cells (Alamar Blue) (human endothelial cells [6]; with laser 980 nm 1.50 W/cm^2 for 130 seconds (195 J/cm^2), H2O2, 85% confluence): killing virtually all of the cells
- effect on the cells (Alamar Blue) (human endothelial cells [6]; without laser): no effect on the cells

Source: patent US9504745B2, “Compositions and methods for cancer treatment using targeted carbon nanotubes” (The Board of Regents of the University of Oklahoma, priority 2007, dated 2016)
